Ki and EC50 data for 27 compounds are collected here from patent US11673894B2, “Imidazopyrimidines and triazolopyrimidines as A2A / A2B inhibitors” (Incyte Corporation, priority 2018, dated 2023).

In test [1] the target is Adenosine A2A receptor (Homo sapiens (Human), UniProt P29274). In words: A2A Tag-lite HTRF Assay. Particulars: Tag-lite Adenosine A2A labeled cells; A2A Receptor Red antagonist fluorescent ligand 12.5 nM; one-site competitive binding model; read-out: A2A_Ki. From the text: The final concentration of DMSO was 1%.
Adenosine A2A receptor, sequence (P29274 whole entry): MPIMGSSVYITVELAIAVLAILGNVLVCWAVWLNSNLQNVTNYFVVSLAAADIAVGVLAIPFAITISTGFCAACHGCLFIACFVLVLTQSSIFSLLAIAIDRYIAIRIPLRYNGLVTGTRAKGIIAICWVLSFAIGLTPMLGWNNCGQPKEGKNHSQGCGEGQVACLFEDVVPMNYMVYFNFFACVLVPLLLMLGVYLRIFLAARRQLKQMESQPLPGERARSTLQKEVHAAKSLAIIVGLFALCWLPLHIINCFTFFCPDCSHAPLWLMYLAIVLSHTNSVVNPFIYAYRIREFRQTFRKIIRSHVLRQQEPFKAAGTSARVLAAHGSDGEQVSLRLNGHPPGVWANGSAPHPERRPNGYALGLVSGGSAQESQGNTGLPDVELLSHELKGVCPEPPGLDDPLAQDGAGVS
(Time-resolved FRET reads energy transfer from a long-lived donor to a nearby acceptor.)

The target of test [2] is human adenosine A2B receptor (Homo sapiens (Human), UniProt P29275). Briefly: Adenosine A2B Receptor Cyclic AMP GS Assay. Format: cell-based. The note with it: HEK-293 cells expressing human A2B receptor; agonist NECA at 12 nM; cAMP accumulation (FRET); read-out: A2B_cAMP_EC50. As for the experimental part:
Stably transfected HEK-293 cells expressing the human adenosine A2B receptor (Perkin Elmer) were maintained in MEM culture medium with 10% FBS and 100 μg/ml Geneticin (Life Technologies). 18 to 24 hours prior to assay, geneticin was removed from culture. The cisbio cAMP-GS Dynamic kit utilizing the FRET (Fluorescence Resonance Energy Transfer) technology was used to measure cAMP accumulation in the cells. Compounds of the present disclosure at an appropriate concentration were mixed with 10000 cells/well in white 96 well half area plates (Perkin Elmer) for 30 min at RT gently shaking. Agonist, NECA (R&D Technologies) at 12 nM was added to each well for 60 min at RT gently shaking. Detection reagents, d2-labeled cAMP (acceptor) and anti-cAMP cryptate (donor) were added to each well for 60 min at RT gently shaking. Plates were read on Pherastar (BMG Labtech), fluorescence ratio 665/620 was calculated and EC50 determination was performed by fitting the curve of percent of control versus the log of the compound concentration using GraphPad Prism.

human adenosine A2B receptor, sequence (P29275 whole entry): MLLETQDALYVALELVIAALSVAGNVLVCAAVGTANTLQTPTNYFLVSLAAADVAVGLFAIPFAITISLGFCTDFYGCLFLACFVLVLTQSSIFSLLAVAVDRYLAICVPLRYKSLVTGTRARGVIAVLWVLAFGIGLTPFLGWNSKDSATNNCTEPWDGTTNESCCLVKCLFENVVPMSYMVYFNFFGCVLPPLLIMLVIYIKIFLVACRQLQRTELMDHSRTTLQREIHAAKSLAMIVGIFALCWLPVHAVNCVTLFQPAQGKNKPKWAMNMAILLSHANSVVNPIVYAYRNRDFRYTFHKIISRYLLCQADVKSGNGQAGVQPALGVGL

On to `CCNC(=O)c1cn2c(N)nc(-c3cccc(C#N)c3)c(-c3ccncc3C)c2n1` [Example 27, 5-Amino-7-(3-cyanophenyl)-N-ethyl-8-(3-methylpyridin-4-yl)imidazo[1,2-c]pyrimidine-2-carboxamide], for which the Ki in test [1] was less than 10 nM. Besides, the EC50 in test [2] fell in the range of 10 to 100 nM.

Consider `COc1cccc(-c2nc(N)n3ccnc3c2-c2ccncc2)c1` [Example 4, 7-(3-Methoxyphenyl)-8-(pyridin-4-yl)imidazo[1,2-c]pyrimidin-5-amine], for which the Ki in test [1] was less than 10 nM. Moreover, in test [2], the EC50 was less than 10 nM.

In the case of `CCCn1nccc1-c1c(-c2cccc(C#N)c2)nc(N)n2nc(Cc3ccccn3)nc12` [Example 43, 3-(5-Amino-8-(1-propyl-1H-pyrazol-5-yl)-2-(pyridin-2-ylmethyl)-[1,2,4]triazolo[1,5-c]pyrimidin-7-yl)benzonitrile], the Ki in test [1] is less than 10 nM. Moreover, the EC50 in test [2] was less than 10 nM.

As to `CCNC(=O)c1cn2c(N)nc(-c3cccc(C#N)c3)c(-c3ccnn3CC)c2n1` [Example 35, 5-Amino-7-(3-cyanophenyl)-N-ethyl-8-(1-ethyl-1H-pyrazol-5-yl)imidazo[1,2-c]pyrimidine-2-carboxamide], the Ki in test [1] was less than 10 nM. Further, in test [2], the EC50 was less than 10 nM.

For the compound `Cc1cnccc1-c1c(-c2cccc(C#N)c2)nc(N)n2nc(Cc3ccccn3)nc12` [Example 58, 3-(5-Amino-8-(3-methylpyridin-4-yl)-2-(pyridin-2-ylmethyl)-[1,2,4]triazolo[1,5-c]pyrimidin-7-yl)benzonitrile], in test [1], the Ki is less than 10 nM. The EC50 in test [2] is less than 10 nM.

Consider `N#Cc1cccc(-c2nc(N)n3nc(C(=O)c4ccccc4)nc3c2-c2ccncn2)c1` [Example 66, 3-(5-Amino-2-benzoyl-8-(pyrimidin-4-yl)-[1,2,4]triazolo[1,5-c]pyrimidin-7-yl)benzonitrile], for which the Ki in test [1] was less than 10 nM. Moreover, the EC50 in test [2] was less than 10 nM.

Regarding `N#Cc1cccc(-c2nc(N)n3nc(C(O)c4ccccc4F)nc3c2-c2ccncn2)c1` (stereo not drawn) [Example 50, 3-(5-Amino-2-((2-fluorophenyl)(hydroxy)methyl)-8-(pyrimidin-4-yl)-[1,2,4]triazolo[1,5-c]pyrimidin-7-yl)benzonitrile], the Ki in test [1] is less than 10 nM. Moreover, the EC50 in test [2] was less than 10 nM.

As for `N#Cc1cccc(-c2nc(N)n3nc(COc4ccccc4C#N)nc3c2-c2ccncn2)c1` [Example 96, 2-((5-Amino-7-(3-cyanophenyl)-8-(pyrimidin-4-yl)-[1,2,4]triazolo[1,5-c]pyrimidin-2-yl)methoxy)benzonitrile], the Ki in test [1] was less than 10 nM. In addition, the EC50 in test [2] is less than 10 nM.

With `Cc1cc(-c2c(-c3ccccc3)nc(N)n3cc(-c4ccccc4)nc23)ccn1` [Example 10, 8-(2-Methylpyridin-4-yl)-2,7-diphenylimidazo[1,2-c]pyrimidin-5-amine], the Ki in test [1] was less than 10 nM. The EC50 in test [2] was in the range of 100 to 1000 nM.

For the compound `CCn1nccc1-c1c(-c2cccc(C#N)c2)nc(N)n2nc(Cc3noc4ccccc34)nc12` [Example 55, 3-(5-Amino-2-(benzo[d]isoxazol-3-ylmethyl)-8-(1-ethyl-1H-pyrazol-5-yl)-[1,2,4]triazolo[1,5-c]pyrimidin-7-yl)benzonitrile], the Ki in test [1] was less than 10 nM. Besides, in test [2], the EC50 was less than 10 nM.

Take `N#Cc1cccc(-c2nc(N)n3nc(Cc4c(F)cccc4CN4C(=O)CNC4=O)nc3c2-c2ccncn2)c1` [Example 75, 3-(5-Amino-2-(2-((2,5-dioxoimidazolidin-1-yl)methyl)-6-fluorobenzyl)-8-(pyrimidin-4-yl)-[1,2,4]triazolo[1,5-c]pyrimidin-7-yl)benzonitrile]: in test [1], the Ki was less than 10 nM. In test [2], the EC50 was less than 10 nM.

Turning to `N#Cc1cccc(-c2nc(N)n3nc(NC(C#N)c4ccccc4)nc3c2-c2ccncn2)c1` (stereo not drawn) [Example 69, 3-(5-Amino-2-((cyano(phenyl)methyl)amino)-8-(pyrimidin-4-yl)-[1,2,4]triazolo[1,5-c]pyrimidin-7-yl)benzonitrile], the Ki in test [1] is less than 10 nM. Besides, the EC50 in test [2] lay in the range of 10 to 100 nM.

`N#Cc1cccc(-c2nc(N)n3nc(CN4CC(O)C4)nc3c2-c2ccncn2)c1` [Example 57, 3-(5-Amino-2-((3-hydroxyazetidin-1-yl)methyl)-8-(pyrimidin-4-yl)-[1,2,4]triazolo[1,5-c]pyrimidin-7-yl)benzonitrile]: the Ki in test [1] is less than 10 nM. Also, the EC50 in test [2] was 100 to 1000 nM.

For the compound `Nc1nc(-c2ccccc2F)c(-c2ccncc2)c2nccn12` [Example 7, 7-(2-Fluorophenyl)-8-(pyridin-4-yl)imidazo[1,2-c]pyrimidin-5-amine], the Ki in test [1] lay in the range of 10 to 100 nM. Also, the EC50 in test [2] was 10 to 100 nM.

Turning to `CCNC(=O)c1cn2c(N)nc(-c3cccc(C#N)c3)c(-c3ccncc3)c2n1` [Example 26, 5-Amino-7-(3-cyanophenyl)-N-ethyl-8-(pyridin-4-yl)imidazo[1,2-c]pyrimidine-2-carboxamide], in test [1], the Ki is less than 10 nM. Also, the EC50 in test [2] is less than 10 nM.

As for `Cc1cc(-c2c(-c3ccccc3)nc(N)n3cc(C(N)=O)nc23)ccn1` [Example 14, 5-Amino-8-(2-methylpyridin-4-yl)-7-phenylimidazo[1,2-c]pyrimidine-2-carboxamide], the Ki in test [1] is less than 10 nM. Also, the EC50 in test [2] was 10 to 100 nM.

With `CCNC(=O)c1cn2c(N)nc(-c3cccc(C#N)c3)c(-c3ccncc3C#N)c2n1` [Example 31, 5-Amino-7-(3-cyanophenyl)-N-ethyl-8-(3-cyanopyridin-4-yl)imidazo[1,2-c]pyrimidine-2-carboxamide], the Ki in test [1] was less than 10 nM. The EC50 in test [2] lay within 10 to 100 nM.

As to `CCn1nccc1-c1c(-c2cccc(C#N)c2)nc(N)n2nc(C3(c4ccccc4)CC3)nc12` [Example 67, 3-(5-Amino-8-(1-ethyl-1H-pyrazol-5-yl)-2-(1-phenylcyclopropyl)-[1,2,4]triazolo[1,5-c]pyrimidin-7-yl)benzonitrile], the Ki in test [1] was less than 10 nM. In addition, in test [2], the EC50 fell in the range of 100 to 1000 nM.

In the case of `Cn1cc(-c2ccccc2Cc2nc3c(-c4ccncn4)c(-c4cccc(C#N)c4)nc(N)n3n2)cn1` [Example 54, 3-(5-Amino-2-(2-(1-methyl-1H-pyrazol-4-yl)benzyl)-8-(pyrimidin-4-yl)-[1,2,4]triazolo[1,5-c]pyrimidin-7-yl)benzonitrile], the Ki in test [1] is less than 10 nM. In addition, the EC50 in test [2] is less than 10 nM.

With `CCNC(=O)c1cn2c(N)nc(-c3cccc(C#N)c3)c(-c3cn[nH]c3C)c2n1` [Example 34, 5-Amino-7-(3-cyanophenyl)-N-ethyl-8-(5-methyl-1H-pyrazol-4-yl)imidazo[1,2-c]pyrimidine-2-carboxamide], the Ki in test [1] was less than 10 nM. Further, in test [2], the EC50 was less than 10 nM.

Regarding `CCNC(=O)c1nc2c(-c3ccnc(OC)c3)c(-c3cccc(C#N)c3)nc(N)n2c1OCCO` [Example 17, 5-Amino-7-(3-cyanophenyl)-JV-ethyl-3-(2-hydroxyethoxy)-8-(2-methoxypyridin-4-yl)imidazo[1,2-c]pyrimidine-2-carboxamide], in test [1], the Ki was less than 10 nM. In test [2], the EC50 lay within 10 to 100 nM.

Regarding `CCNC(=O)c1cn2c(N)nc(-c3cccc(C#N)c3)c(-c3ccnn3C(C)C)c2n1` [Example 36, 5-Amino-7-(3-cyanophenyl)-N-ethyl-8-(1-isopropyl-1H-pyrazol-5-yl)imidazo[1,2-c]pyrimidine-2-carboxamide], in test [1], the Ki was less than 10 nM. In addition, the EC50 in test [2] fell in the range of 10 to 100 nM.

Consider `CCNC(=O)c1cn2c(N)nc(-c3cccc(C#N)c3)c(-c3ccncc3F)c2n1` [Example 28, 5-Amino-7-(3-cyanophenyl)-N-ethyl-8-(3-fluoropyridin-4-yl)imidazo[1,2-c]pyrimidine-2-carboxamide], for which, in test [1], the Ki is less than 10 nM. Besides, the EC50 in test [2] is less than 10 nM.

In the case of `CCn1nccc1-c1c(-c2cccc(C#N)c2)nc(N)n2nc(Cc3ncccc3F)nc12` [Example 52, 3-(5-Amino-8-(1-ethyl-1H-pyrazol-5-yl)-2-((3-fluoropyridin-2-yl)methyl)-[1,2,4]triazolo[1,5-c]pyrimidin-7-yl)benzonitrile], the Ki in test [1] was less than 10 nM. The EC50 in test [2] is less than 10 nM.

With `CCNC(=O)c1cn2c(N)nc(-c3cccc(C#N)c3)c(-c3ccc(C(N)=O)cc3)c2n1` [Example 32, 5-Amino-8-(4-carbamoylphenyl)-7-(3-cyanophenyl)-N-ethylimidazo[1,2-c]pyrimidine-2-carboxamide], the Ki in test [1] was less than 10 nM. Further, the EC50 in test [2] was 100 to 1000 nM.

In the case of `N#Cc1cccc(-c2nc(N)n3nc(Cc4ccccn4)nc3c2-c2ncncc2F)c1` [Example 46, 3-(5-Amino-8-(5-fluoropyrimidin-4-yl)-2-(pyridin-2-ylmethyl)-[1,2,4]triazolo[1,5-c]pyrimidin-7-yl)benzonitrile], in test [1], the Ki was less than 10 nM. For the same compound, the EC50 in test [2] is less than 10 nM.

For the compound `CCNC(=O)c1nc2c(-c3ccnc(OC)c3)c(-c3cccc(C#N)c3)nc(N)n2c1-c1ccccn1` [Example 19, 5-Amino-7-(3-cyanophenyl)-N-ethyl-8-(2-methoxypyridin-4-yl)-3-(pyridin-2-yl)imidazo[1,2-c]pyrimidine-2-carboxamide], the Ki in test [1] was less than 10 nM. Moreover, the EC50 in test [2] is 100 to 1000 nM.
